Laboratory results as given in patent publication US11751573B2, “Seaweed composition” (priority 2017, dated 2023).

Tests used:
tobacco callus = tobacco callus bioassay, cited from earlier work; for minimum concentrations required for activity compared to tZ and BA: fold worse; for MINIMUM CONCENTRATION / OPTIMUM CONCENTRATION: Matsubara 1990, Letham et al. 1983
Phaseolus lunatus callus = details: cited from earlier work; for EC50: Phaseolus lunatus callus, Mok et al. 2005, read-out: concentration at which one half of the maximal growth is achieved; for MINIMUM CONCENTRATION / OPTIMUM CONCENTRATION: P. lunatus callus bioassay, Matsbuara 1990
[1] = test system: Tobacco callus/P. lunatus callus; test: trans-Zeatin equivalents based on Tobacco callus/P. lunatus callus bioassay; format: cell-based; details: for nM in tZ EQUIVALENTS IN KELPAK / nM in tZ E[…] KELPAK: contribution of the cytokinin in Kelpak
From the text: It can be seen from Table 4 that there is significant variation in activity between the cytokinins. The minimum concentration required for an effect and the optimum concentration in the tobacco callus assay are much better for iP and tZ than the other cytokinins, with BA still quite good.
The activity of pT in this assay has not been reported.
Nevertheless, the response of plant growth to different cytokinins can vary depending on the specific circumstances.

[2] = test system: Phaseolus vulgaris callus; details: Phaseolus vulgaris callus assay; Matsbuara 1990; cited from earlier work
Pea test = details: used to make it equivalent to IAA; Pilet 1971; cited from earlier work
[3] = contribution of the cytokinin in Composition 1
[4] = contribution of the cytokinin in Composition 2

In the case of `Oc1cccc(CNc2ncnc3nc[nH]c23)c1` [mT, meta-topolin], the “optimum concentration compared to tZ” value (tobacco callus; Holub et al. 1998) is given as “similar”, the “minimum concentrations required for activity compared to tZ and BA” value (tobacco callus; Holub et al. 1998) is given as “similar” and the EC50 (Phaseolus lunatus callus) is given as ~0.05 µM.
In the case of “cis-zeatin riboside [cis-zeatin riboside (cZR)]”, the “MINIMUM CONCENTRATION” value (tobacco callus) is given as 0.03 µM and the “OPTIMUM CONCENTRATION” value (tobacco callus) is given as 0.3 µM.
In the case of `OC[C@H]1O[C@@H](n2cnc3c(NCc4ccccc4O)ncnc32)[C@H](O)[C@@H]1O` [oTR, ortho-topolin riboside], the “minimum concentrations required for activity compared to tZ and BA” value (tobacco callus; Holub et al. 1998) is given as 100 fold.
In the case of `CC(CO)CCNc1ncnc2c1ncn2[C@@H]1O[C@H](CO)[C@@H](O)[C@H]1O` (stereo partly drawn) [dihydrozeatin riboside (DHZR), dihydrozeatin riboside], the “nM in tZ EQUIVALENTS IN KELPAK” value [1] is listed as 0.00001 nM, the “MINIMUM CONCENTRATION” value (tobacco callus) is listed as 0.01 µM and the “OPTIMUM CONCENTRATION” value (tobacco callus) is listed as 4 µM.
For `CC(CO)CCNc1ncnc2nc[nH]c12` (stereo not drawn) [dihydrozeatin (DHZ), dihydrozeatin], the “MINIMUM CONCENTRATION” value (tobacco callus) is given as 0.01 µM and the “OPTIMUM CONCENTRATION” value (tobacco callus) is given as 0.4 µM.
In the case of `Oc1ccccc1CNc1ncnc2nc[nH]c12` [ortho-topolin (oT), ortho-topolin], the “nM in tZ EQUIVALENTS IN KELPAK” value [1] is listed as 0.002 nM, the “minimum concentrations required for activity compared to tZ and BA” value (tobacco callus; Holub et al. 1998) is listed as 100 fold and the EC50 (Phaseolus lunatus callus) is listed as ~1 µM.
In the case of `C/C(=C/CNc1ncnc2nc[nH]c12)CO` [cis-zeatin (cZ), cis-zeatin], the “nM in tZ E[…] ROOM T[…] (COMPOSITION 1)” value [1, 3] is reported as 0.03 nM, the “nM in tZ E[…] 90° C. EXTRACT (COMPOSITION 2)” value [1, 4] is reported as 0.03 nM and the “nM in tZ E[…] KELPAK” value [1] is reported as 0.00008 nM. For the same compound, the “MINIMUM CONCENTRATION” value (tobacco callus) was 0.03 µM, the “OPTIMUM CONCENTRATION” value (tobacco callus) was 0.5 µM and the MINIMUM CONCENTRATION [2] was 0.01 µM. The OPTIMUM CONCENTRATION [2] was 3 µM, the MINIMUM CONCENTRATION (Phaseolus lunatus callus) was 0.03 µM and the OPTIMUM CONCENTRATION (Phaseolus lunatus callus) was 3 µM. For the same compound, the EC50 (Phaseolus lunatus callus) was ~0.3 µM.
For `C/C(=C\CNc1ncnc2nc[nH]c12)CO` [trans-zeatin (tZ), trans-zeatin], the “nM in tZ E[…] KELPAK” value [1] is given as 0.29 nM, the “MINIMUM CONCENTRATION” value (tobacco callus) is given as 0.0001 µM and the “OPTIMUM CONCENTRATION” value (tobacco callus) is given as 0.004 to 0.05 µM. For the same compound, the MINIMUM CONCENTRATION [2] was 0.0301 µM, the OPTIMUM CONCENTRATION [2] was 3 µM and the MINIMUM CONCENTRATION (Phaseolus lunatus callus) was 0.001 µM. For the same compound, the OPTIMUM CONCENTRATION (Phaseolus lunatus callus) was 0.3 µM and the EC50 (Phaseolus lunatus callus) was ~0.02 µM.
For `COC(=O)C(=O)c1c[nH]c2ccccc12` [IGAMe, indole-3-glyoxylic acid methyl ester], the “activity relative to IAA” value (Pea test) is given as 1/28.
In the case of `c1ccc(CNc2ncnc3nc[nH]c23)cc1` [N6-benzyladenine (BA), N6-benzyladenine], the “nM in tZ EQUIVALENTS IN 90° C. EXTRACT (COMPOSITION 2)” value [1, 4] is given as 0.0002 nM, the “nM in tZ EQUIVALENTS IN KELPAK” value [1] is given as 0.01 nM and the “MINIMUM CONCENTRATION” value (tobacco callus) is given as 0.0008 µM. The “OPTIMUM CONCENTRATION” value (tobacco callus) was 0.07 µM, the MINIMUM CONCENTRATION [2] was 0.001 µM and the MINIMUM CONCENTRATION (Phaseolus lunatus callus) was 0.01 µM. The OPTIMUM CONCENTRATION (Phaseolus lunatus callus) was 3 µM and the EC50 (Phaseolus lunatus callus) was ~0.04 µM.
For `c1coc(CNc2ncnc3[nH]cnc23)c1` [kinetin (K), kinetin], the “MINIMUM CONCENTRATION” value (tobacco callus) is listed as 0.001 µM and the “OPTIMUM CONCENTRATION” value (tobacco callus) is listed as 0.1 µM.
For `CC(CCNc1ncnc2nc[nH]c12)CO[C@@H]1O[C@H](CO)[C@@H](O)[C@H](O)[C@H]1O` (stereo partly drawn) [Dihydrozeatin-O-glucoside (DHZOG), Dihydrozeatin-O-glucoside], the “MINIMUM CONCENTRATION” value (tobacco callus) is listed as 0.001 µM.
For `Oc1ccc(CNc2ncnc3nc[nH]c23)cc1` [para-topolin (pT), para-topolin], the “nM in tZ EQUIVALENTS IN ROOM TEMPERATURE EXTRACT (COMPOSITION 1)” value [1, 3] is given as 0.0001 nM, the “nM in tZ EQUIVALENTS IN 90° C. EXTRACT (COMPOSITION 2)” value [1, 4] is given as 0.09 nM and the EC50 (Phaseolus lunatus callus) is given as ~30 µM.
For “trans-zeatin-9-glucoside [trans-zeatin-9-glucoside (tZ9G)]”, the “MINIMUM CONCENTRATION” value (tobacco callus) is listed as >50 µM.
In the case of “trans-zeatin-O-glucoside [trans-zeatin-O-glucoside (tZOG)]”, the “nM in tZ E[…] KELPAK” value [1] is given as 3.6 nM and the “MINIMUM CONCENTRATION” value (tobacco callus) is given as 0.001 µM.
For trans-zeatin riboside-O-glucoside, the “nM in tZ E[…] KELPAK” value [1] is listed as 0.0005 nM and the “MINIMUM CONCENTRATION” value (tobacco callus) is listed as 0.003 µM.
In the case of `CC(CCNc1ncnc2c1ncn2C1OC(CO)C(O)C1O)COC1OC(CO)C(O)C(O)C1O` (stereo not drawn) [dihydrozeatin riboside-O-glucoside], the “nM in tZ EQUIVALENTS IN KELPAK” value [1] is listed as 0.00003 nM and the “MINIMUM CONCENTRATION” value (tobacco callus) is listed as 0.002 µM.
For `C/C(=C\CNc1ncnc2c1ncn2[C@@H]1O[C@H](CO)[C@@H](O)[C@H]1O)CO` (relative stereo) [trans-zeatin riboside (tZR), trans-zeatin riboside], the “MINIMUM CONCENTRATION” value (tobacco callus) is listed as 0.003 µM, the “OPTIMUM CONCENTRATION” value (tobacco callus) is listed as 0.3 µM and the MINIMUM CONCENTRATION [2] is listed as 0.03 µM. For the same compound, the OPTIMUM CONCENTRATION [2] was 3 µM, the MINIMUM CONCENTRATION (Phaseolus lunatus callus) was 0.003 µM and the OPTIMUM CONCENTRATION (Phaseolus lunatus callus) was 0.1 µM.
For `OC[C@H]1O[C@@H](n2cnc3c(NCc4ccccc4)ncnc32)[C@H](O)[C@@H]1O` [N6-benzyladenosine (BAR), N6-benzyladenosine], the “nM in tZ EQUIVALENTS IN KELPAK” value [1] is listed as 0.0001 nM, the “MINIMUM CONCENTRATION” value (tobacco callus) is listed as 0.02 µM and the “OPTIMUM CONCENTRATION” value (tobacco callus) is listed as 1 µM.
